Numbers after ± are expanded uncertainties.
Experiment: an = ratio of the nth substance listed
Conditions: 101 kPa, Liquid, Vibrating tube method

COP(=O)([O-])OC.Cn1cc[n+](C)c1 [1,3-dimethylimidazolium dimethylphosphate] + O
mass density (293.15 K, a1 = 0.5): 1086.4 ± 0.2 kg/m3
mass density (293.15 K, a1 = 0.75): 1112.3 ± 0.3 kg/m3
mass density (313.15 K, a1 = 0.5): 1076.8 ± 0.2 kg/m3
mass density (313.15 K, a1 = 0.75): 1104.1 ± 0.2 kg/m3
mass density (333.15 K, a1 = 0.5): 1076.6 ± 0.2 kg/m3
mass density (333.15 K, a1 = 0.75): 1103.3 ± 0.2 kg/m3

Cn1cc[n+](C)c1.F[B-](F)(F)F [1,3-dimethyl-1H-imidazolium tetrafluoroborate] + O
mass density (313.15 K, a1 = 0.75): 1098.4 ± 0.3 kg/m3

Cn1cc[n+](C)c1.[Cl-] [1,3-dimethylimidazolium chloride] + O
mass density (313.15 K, a1 = 0.75): 1096.1 ± 0.3 kg/m3

From the NIST ThermoML archive (doi:10.1021/je400109a)
